{
  "source": "patent EP0351720B1",
  "about": "“Use of substituted 3,4-dihydro-2H-benzopyrans as medicaments against obstructive disorders of the lung” (HOECHST AKTIENGESELLSCHAFT, priority 1988, dated 1990)",
  "tested_on": "Histamin-induzierte Bronchokonstriktion",
  "assay": "Influence on histamine-induced bronchoconstriction in anaesthetised, ventilated guinea pigs (modified Konzett-Rössler method), test substance given as aerosol",
  "assay_type": "in vivo, Meerschweinchen",
  "details": "for % Hemmung der Histamin-induzierten Bronchokonstriktion: n = 6, change vs control",
  "protocol": "a) Beeinflussung von Atemwegsstörungen Einfluß auf die histamin-induzierte Bronchokonstriktion am Meerschweinchen\nAlbino-Meerschweinchen beiderlei Geschlechts mit einem Gewicht zwischen 450 und 550 g wurden mit 60 mg/kg Pentobarbital i.p. narkotisiert. Nach Tracheotomie wurden sie mit einer Starlingpumpe (Fa. Braun, Melsungen) beatmet. Das Atemvolumen wurde so gewählt, daß die Lungen ausgiebig belüftet wurden. Der Beatmungsdruck wurde mit Hilfe einer Wassersäule auf 80 mm H₂O eingestellt (Rosenthal und Dervinis). Die Atemfrequenz betrug 30 Atemzüge/min. Ein Überschuß an verfügbarer Atemluft kann durch einen Nebenweg im Einatemschlauch zu einer als Wasser-Überdruckventil geschalteten Waschflasche gelangen. Wird von der Starling-Pumpe durch den Einatemschlauch Luft in die Lunge geblasen, so füllt sich diese so lange, bis der Druck in dem System den durch die Höhe der Wassersäule eingestellten Wert (80 mm H₂O) erreicht hat. Die noch weiter zuströmende Luft fließt durch das Überdruckventil in die Waschflasche. Dieser Luftüberschuß, der nach Überschreiten des eingestellten Drucks in die Flasche entweicht, wird mit Hilfe eines Pistonrekorders gemessen und gilt als Maß für eine Veränderung des Atemwiderstands. Die Messung erfolgte in einer von der ursprünglichen Konzett-Rössler-Methode leicht modifizierten Weise, indem der Pistonrekorder durch ein Staudruckrohr nach Fleisch (Typ 0000) ersetzt wurde. Der auftretende Druckunterschled wurde mit einem Differenzdruckwandler Statham PM 97 TC erfaßt. Zur Aufzeichnung der Meßwerte diente ein Mehrfachkanalschreiber der Fa. Hellige.\nDie Testsubstanzen werden als Aerosol mit Hilfe eines Ultraschallverneblers (Monaghan M 650) verabreicht. Die Verneblerkammer wird in den Einatemschlauch der Atempumpe zwischengeschaltet und den Tieren gestattet, das Aerosol 1 min lang einzuatmen. Das zu vernebelnde Volumen beträgt 0,02 ml/min.\nVernebelt wird eine physiologische Kochsalzlösung, der die zu prüfende Substanz in Form einer Lösung in Propandiol zugesetzt wird.\nIn einem Kontrollversuch wird sichergestellt, daß das Lösemittel Propandiol/physiologische Kochsalzlösung keine Eigenwirkung besitzt.\nEine Bronchokonstriktion wird durch Gaben von Histamindihydrochlorid (6 - 12 »g/kg i.v.) induziert. Die Injektion erfolgt durch einen in die V. jugularis eingeführten Katheter. Die Dosierung wird so gewählt, daß ein respiratorischer \"Überfluß\" von 60 % des angebotenen Atemvolumens während der Histamin-induzierten Bronchokonstriktion auftritt. Die Histamingaben erfolgen in 5-Minuten-Intervallen. Nach mindestens 3 gut reproduzierbaren Bronchokonstriktionen werden die Testsubstanzen als Aerosol 1 min lang verabreicht und nach einer Einwirkungszeit von 2 min erneut die Bronchokonstriktion induziert und in 5-Minuten-Intervallen wiederholt. […]",
  "data": [
    {"smiles": "CC1(C)Oc2ccc(S(=O)(=O)c3ccccc3)cc2C(N2CCCC2=O)C1O", "note": "(single isomer, unassigned; (+)) [Beispiel 5a, (+)-3,4-Dihydro-2,2-dimethyl-6-phenylsulfonyl-4-(2-oxo-1-pyrrolidinyl)-2H-benzo[b]pyran-3-ol]", "values": [
      {"measurement": "ED50", "setting": "Cavia porcellus, inhaled or nasal, aerosol, determined by linear regression of the % inhibition results, read-out: ID₅₀", "result": 4.39, "unit": "µg/kg"},
      {"measurement": "% Hemmung der Histamin-induzierten Bronchokonstriktion", "setting": "Dosis 1 »g/kg as aerosol for 1 min", "result": "14 ± 4", "unit": "%"},
      {"measurement": "% Hemmung der Histamin-induzierten Bronchokonstriktion", "setting": "Dosis 3 »g/kg as aerosol for 1 min", "result": "35 ± 4", "unit": "%"},
      {"measurement": "% Hemmung der Histamin-induzierten Bronchokonstriktion", "setting": "Dosis 10 »g/kg as aerosol for 1 min", "result": "77 ± 7", "unit": "%"}
    ]}
  ]
}
